Assay results from the NIST ThermoML archive (doi:10.1021/je3003404).

Assay: mn = molality of the nth substance listed, in mol/kg
Conditions: 101 kPa, Liquid; for viscosity: Capillary tube (Ostwald / Ubbelohde) method; for electrical conductivity: Dip type conductivity cell; for mass density: Pycnometric method; for speed of sound: Sing-around technique in a fixed-path interferometer

CCCCCCCCCCCCCCCC[N+](C)(C)CC.[Br-] [ethylhexadecyldimethylammonium bromide] + O
Conditions | electrical conductivity [S/m] | mass density [kg/m3] | speed of sound [m/s] | viscosity [mPa·s]
298.15 K, m1 = 0.0002 | 0.0027 | 996.43 | 1498.5 | 0.8803
298.15 K, m1 = 0.0005 | 0.00707 | 996.47 | 1499.3 | 0.8841
298.15 K, m1 = 0.0008 | 0.0105 | 996.51 | 1500 | 0.887
298.15 K, m1 = 0.0012 | 0.0119 | 996.54 | 1500.3 | 0.8904
298.15 K, m1 = 0.0016 | 0.0127 | 996.56 | 1500.1 | 0.8929
298.15 K, m1 = 0.002 | 0.0138 | 996.58 | 1499.9 | 0.8952
298.15 K, m1 = 0.0025 | 0.0152 | 996.6 | 1499.9 | 0.8979
298.15 K, m1 = 0.003 | 0.0161 | 996.62 | 1499.7 | 0.9007
303.15 K, m1 = 0.0002 | 0.00301 | 994.49 | 1510.3 | 0.7889
303.15 K, m1 = 0.0005 | 0.00808 | 994.52 | 1511 | 0.792
303.15 K, m1 = 0.0008 | 0.0127 | 994.56 | 1511.8 | 0.7945
303.15 K, m1 = 0.0012 | 0.0144 | 994.59 | 1512.3 | 0.7978
303.15 K, m1 = 0.0016 | 0.0153 | 994.61 | 1512.2 | 0.8001
303.15 K, m1 = 0.002 | 0.0167 | 994.62 | 1512 | 0.8021
303.15 K, m1 = 0.0025 | 0.0178 | 994.64 | 1511.8 | 0.8047
303.15 K, m1 = 0.003 | 0.0194 | 994.66 | 1511.6 | 0.807
308.15 K, m1 = 0.0002 | 0.00338 | 992.55 | 1518.6 | 0.7097
308.15 K, m1 = 0.0005 | 0.00879 | 992.58 | 1519.2 | 0.7125
308.15 K, m1 = 0.0008 | 0.014 | 992.61 | 1519.9 | 0.7157
308.15 K, m1 = 0.0012 | 0.0161 | 992.63 | 1520.4 | 0.719
308.15 K, m1 = 0.0016 | 0.017 | 992.65 | 1520.2 | 0.7209
308.15 K, m1 = 0.002 | 0.0185 | 992.66 | 1520 | 0.7228
308.15 K, m1 = 0.0025 | 0.0195 | 992.67 | 1520 | 0.725
308.15 K, m1 = 0.003 | 0.0217 | 992.69 | 1519.5 | 0.7271
313.15 K, m1 = 0.0002 | 0.00364 | 990.61 | 1528.8 | 0.641
313.15 K, m1 = 0.0005 | 0.00952 | 990.63 | 1529.9 | 0.6432
313.15 K, m1 = 0.0008 | 0.0153 | 990.67 | 1530.4 | 0.6469
313.15 K, m1 = 0.0012 | 0.0183 | 990.68 | 1531.2 | 0.6502
313.15 K, m1 = 0.0016 | 0.0187 | 990.69 | 1531.1 | 0.652
313.15 K, m1 = 0.002 | 0.0209 | 990.7 | 1530.9 | 0.6539
313.15 K, m1 = 0.0025 | 0.0224 | 990.72 | 1530.7 | 0.6558
313.15 K, m1 = 0.003 | 0.0243 | 990.73 | 1530.5 | 0.6576
318.15 K, m1 = 0.0002 | 0.00396 | 988.67 | 1537.1 | 0.582
318.15 K, m1 = 0.0005 | 0.0107 | 988.68 | 1538.2 | 0.5832
318.15 K, m1 = 0.0008 | 0.0171 | 988.7 | 1538.5 | 0.587
318.15 K, m1 = 0.0012 | 0.021 | 988.73 | 1539.4 | 0.5903
318.15 K, m1 = 0.0016 | 0.023 | 988.74 | 1539.2 | 0.5922
318.15 K, m1 = 0.002 | 0.025 | 988.75 | 1539 | 0.5935
318.15 K, m1 = 0.0025 | 0.0265 | 988.76 | 1538.8 | 0.5954
318.15 K, m1 = 0.003 | 0.028 | 988.78 | 1538.6 | 0.5971
323.15 K, m1 = 0.0002 | – | 986.71 | 1541.7 | 0.5274
323.15 K, m1 = 0.0005 | – | 986.72 | 1542.8 | 0.5298
323.15 K, m1 = 0.0008 | – | 986.74 | 1543.5 | 0.5334
323.15 K, m1 = 0.0012 | – | 986.76 | 1544.5 | 0.5357
323.15 K, m1 = 0.0016 | – | 986.78 | 1544.3 | 0.5384
323.15 K, m1 = 0.002 | – | 986.79 | 1544.1 | 0.5398
323.15 K, m1 = 0.0025 | – | 986.8 | 1544 | 0.5413
323.15 K, m1 = 0.003 | – | 986.81 | 1543.8 | 0.5426
